According to ChEMBL document CHEMBL5506066, “Potency-Enhanced Peptidomimetic VHL Ligands with Improved Oral Bioavailability” (J Med Chem, 2024):
In brackets after ≈: the same amount, converted by molar mass.

What was measured:
[1] = Permeability of the compound at pH 7.4 in PBS incubated for 16 hrs by LC-MS/MS based PAMPA assay; assay type: ADME; conditions: read-out: permeability
[2] = Apparent permeability from apical to basolateral side in MDCKI cells at 10 uM measured upto 180 mins by LC-MS/MS analysis; assay type: ADME, cell-based, Canis lupus familiaris, MDCK1; conditions: dog, MDCK
[3] = Half life in female C57Bl/6 mouse at 10 mg/kg, po measured upto 8 hrs by LC-MS/MS analysis; assay type: ADME, organism-based; conditions: in vivo
[4] = Plasma protein binding in human at 5 uM incubated for 4 hrs by HPLC analysis; assay type: ADME, cell-free; conditions: read-out: PPB (converted)
[5] = target: T1, von Hippel-Lindau disease tumor suppressor (Homo sapiens, UniProt P40337)
T1 sequence (P40337 whole entry): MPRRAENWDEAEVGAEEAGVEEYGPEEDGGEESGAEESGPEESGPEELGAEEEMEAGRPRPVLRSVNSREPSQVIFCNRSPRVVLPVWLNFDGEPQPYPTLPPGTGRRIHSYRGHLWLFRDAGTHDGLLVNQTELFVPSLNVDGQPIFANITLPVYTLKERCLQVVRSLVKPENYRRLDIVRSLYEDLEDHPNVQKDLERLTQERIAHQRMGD

[6] = Plasma protein binding in CD-1 mouse at 5 uM incubated for 4 hrs by HPLC analysis; assay type: ADME, cell-free; conditions: read-out: PPB (converted)
[7] = Plasma clearance in female C57Bl/6 mouse at 1 mg/kg, iv measured upto 8 hrs by LC-MS/MS analysis; assay type: ADME, organism-based
[8] = target: T1, von Hippel-Lindau disease tumor suppressor; assay: biochemical
Description: Binding affinity to VHL (unknown origin)-NanoLuc fusion protein expressed in HEK293 cells assessed as apparent dissociation constant incubated for 30 mins in presence of digitonin by NanoBRET assay

[9] = Solubility of the compound in FaSSIF; assay type: ADME
[10] = Oral bioavailability in female C57Bl/6 mouse at 10 mg/kg measured upto 8 hrs by LC-MS/MS analysis; assay type: ADME, organism-based; conditions: in vivo
[11] = Volume of distribution in female C57Bl/6 mouse at 1 mg/kg, iv measured upto 8 hrs by LC-MS/MS analysis; assay type: ADME, organism-based; conditions: in vivo
[12] = target: T1, von Hippel-Lindau disease tumor suppressor; assay: Binding affinity to Navi-tagged VHL (unknown origin) assessed as dissociation constant by SPR assay

Row | Structure (SMILES) | Kd [5] | Kd [8] | other results
1 | CC(=O)N[C@H](C(=O)N1C[C@H](O)C[C@H]1C(=O)N[C@H](Cc1ccc(-c2ccccc2)cc1)C(N)=O)C(C)(C)C | – | – | Papp at 16 h [1]: 0.004 ×10⁻⁶ cm/s
2 | CC(=O)N[C@H](C(=O)N1C[C@H](O)C[C@H]1C(=O)N[C@@H](C)c1ccc(-c2scnc2C)cc1)C(C)(C)C | 0.18 µM | 0.12 µM | Papp A→B at 3 h, 10 µM [2]: 0.7 ×10⁻⁶ cm/s; half-life [3]: 3.8 h; fraction unbound at 4 h, 5 µM [4]: 0.516; fraction unbound at 4 h, 5 µM [6]: 0.399; clearance [7]: 57.7 mL/min/kg; solubility [9]: > 200 µM; bioavailability [10]: 2.7%; Vd [11]: 0.9 L/kg
3 | CC(=O)N[C@H](C(=O)N1C[C@H](O)C[C@H]1C(=O)N[C@H](Cc1ccc(-c2scnc2C)cc1)C(N)=O)C(C)(C)C | > 51.8 µM | 3.29 µM | Papp at 16 h [1]: 0.19 ×10⁻⁶ cm/s
4 | Cc1ncsc1-c1ccc2c(c1)CCCC[C@@H]2NC(=O)[C@@H]1C[C@@H](O)CN1C(=O)[C@@H](n1cc(C2CC2)nn1)C(C)(C)C | < 0.0025 µM | < 0.0025 µM | Papp A→B at 3 h, 10 µM [2]: 8.9 ×10⁻⁶ cm/s; half-life [3]: 2.3 h; fraction unbound at 4 h, 5 µM [4]: 0.003; Kd [12]: 0.00054 µM; fraction unbound at 4 h, 5 µM [6]: 0.003; clearance [7]: 13.9 mL/min/kg; solubility [9]: 190 µM (≈ 110 µg/mL); bioavailability [10]: 46.5%; Vd [11]: 0.7 L/kg
5 | CC(=O)NC(C)(C)C(=O)N1C[C@H](O)C[C@H]1C(=O)N[C@H](Cc1ccc(-c2ccccc2)cc1)C(N)=O | > 57.5 µM | > 51.8 µM | –
6 | CCC(C)(C)[C@@H](C(=O)N1C[C@H](O)C[C@H]1C(=O)N[C@H](Cc1ccc(-c2ccccc2)cc1)C(N)=O)n1cc(C2CC2)nn1 | 0.059 µM | 0.069 µM | –
7 | CC(=O)N[C@H](C(=O)N1C[C@H](O)C[C@H]1C(=O)N[C@H](Cc1ccc(-c2ccc(F)cn2)cc1)C(N)=O)C(C)(C)C | 6.6 µM | 2.9 µM | –
8 | CC(=O)N[C@H](C(=O)N1C[C@H](O)C[C@H]1C(=O)N[C@H](Cc1ccc(-c2ccc(F)cc2)cc1)C(N)=O)C(C)(C)C | 11.8 µM | 2.1 µM | –
9 | NC(=O)[C@@H](Cc1ccc(-c2ccccc2)cc1)NC(=O)[C@@H]1C[C@@H](O)CN1C(=O)Cc1cncs1 | > 57.5 µM | > 51.8 µM | –
10 | CC(=O)N[C@H](C(=O)N1C[C@H](O)C[C@H]1C(=O)N[C@H](Cc1ccc(-c2ccccc2)cc1)C(N)=O)C12CC3CC(CC(C3)C1)C2 | 0.68 µM | 0.41 µM | –
11 | NC(=O)[C@@H](Cc1ccc(-c2ccccc2)cc1)NC(=O)[C@@H]1C[C@@H](O)CN1C(=O)Cc1cnco1 | > 57.5 µM | > 51.8 µM | –
12 | Cc1ncc(CC(=O)N2C[C@H](O)C[C@H]2C(=O)N[C@H](Cc2ccc(-c3ccccc3)cc2)C(N)=O)s1 | > 57.5 µM | > 51.8 µM | –
13 | Cc1noc(CC(=O)N2C[C@H](O)C[C@H]2C(=O)N[C@H](Cc2ccc(-c3ccccc3)cc2)C(N)=O)n1 | > 57.5 µM | > 51.8 µM | –
14 | CC(C)[C@@H](C(=O)N1C[C@H](O)C[C@H]1C(=O)N[C@H](Cc1ccc(-c2ccccc2)cc1)C(N)=O)c1cnn(C)c1 | > 57.5 µM | 45.7 µM | –
15 | CC(=O)N[C@H](C(=O)N1C[C@H](O)C[C@H]1C(=O)N[C@H](Cc1ccc(-c2ccccc2)cc1)C(N)=O)C1CCN(C(C)=O)CC1 | > 57.5 µM | 2.7 µM | –
16 | CC(=O)N[C@H](C(=O)N1C[C@H](O)C[C@H]1C(=O)N[C@H](Cc1ccc(-c2ccc(F)c(Cl)c2)cc1)C(N)=O)C(C)(C)C | 11 µM | 3.5 µM | –
17 | CC(=O)N[C@H](C(=O)N1C[C@H](O)C[C@H]1C(=O)N[C@H](Cc1ccc(C)cc1)C(N)=O)C(C)(C)C | > 57.5 µM | > 51.8 µM | –
